Laboratory results from US8748568B2, “Isolated A-type FHF N-terminal domain peptides and methods of use” (Research Foundation of The City University of New York, priority 2009, dated 2014).
Entries after “also recorded” stand apart in the source; their conditions may differ.

Experiments:
[1] = system: TTX-resistant Nav1.6; test: Whole cell voltage clamp of Nav1.6 currents in Neuro2A cells: long-term inactivation through repeated depolarization cycles; assay type: cell-based
Procedure: […]. Nav1.6 currents were analyzed in cells without FHFs (upper panels) or after transient transfection with a DNA vector expressing full-length FHF2A protein (lower panels). The holding voltage was −90 mV. Cells were subjected to two 6 millisecond depolarizations at 0 mV separated by −90 mV interpulse recovery periods of 0.5 to 20 msec (left panels). All 40 command sweeps are shown.
Neuro2A cells expressing TTX-resistant Nav1.6 were transfected with DNA expression vectors for FHF1A, FHF1B, FHF2A, FHF2B, or FHF4B. Transfected cells in the presence of TTX were subjected to four 16 millisecond depolarization cycles (0 mV) separated by 40 millisecond recovery periods (−90 mV), and peak inward Nav1.6-mediated sodium currents were recorded for each depolarization.
A Neuro2A cell expressing TTX-resistant Nav1.6 and transfected to express FHF2A was analyzed for the voltage dependence of steady state inactivation, long-term inactivation, and activation, using specific voltage command protocols. For steady state inactivation, cells were held at different “test command” voltages for 60 milliseconds followed immediately by further depolarization to 0 mV; the residual peak current derives from channels not inactivated (i.e. still available). For long term inactivation, cells were held at different “test command” voltages for 60 milliseconds, with each test command followed by 40 millisecond recovery at −90 mV before depolarization to 0 mV; peak current derives from channels that have not undergone long-term inactivation. For activation, cells were depolarized to different “test command” voltages, and peak inward currents were converted to percent maximum conductance to reflect percentage of channels transiently activated.
(§1) Neuro2A cells expressing TTX-resistant Nav1.6 were analyzed for TTX-resistant sodium currents following whole cell patch clamp using pipette solution containing peptide corresponding to N-terminal residues 2-21 of FHF2A (referred to as ANTD, for A-type N-terminal domain). Peptide injected cells were subjected to four 16 millisecond depolarization cycles (0 mV) separated by 40 millisecond recovery periods (−90 mV), and peak inward Nav1.6-mediated sodium currents were recorded for each depolarization.

[2] = system: TTX-resistant Nav1.6; test: Voltage dependence of steady state inactivation of Nav1.6 in Neuro2A cells; assay type: cell-based
Procedure: A Neuro2A cell expressing TTX-resistant Nav1.6 and transfected to express FHF2A was analyzed for the voltage dependence of steady state inactivation, long-term inactivation, and activation, using specific voltage command protocols. For steady state inactivation, cells were held at different “test command” voltages for 60 milliseconds followed immediately by further depolarization to 0 mV; the residual peak current derives from channels not inactivated (i.e. still available). For long term inactivation, cells were held at different “test command” voltages for 60 milliseconds, with each test command followed by 40 millisecond recovery at −90 mV before depolarization to 0 mV; peak current derives from channels that have not undergone long-term inactivation. […]
as §1

[3] = system: cerebellar granule neurons; test: Voltage clamp and current clamp of cultured cerebellar granule neurons; assay type: cell-based, Mouse; conditions: 1 mM peptide injected
Procedure: Mouse cerebellar granule neurons were cultured for 14 days under conditions that promoted their maturation to a fully excitable state. These neurons were Whole cell patched and subjected to voltage clamp and current clamp protocols. In voltage clamp, neurons were depolarized four times for 16 milliseconds to 0 mV with 40 millisecond interpulse recoveries at −90 mV (left panels). In current clamp, positive current injection for 800 milliseconds was used to trigger firing of action potentials. A range of currents were tested, and only the recordings from currents giving highest frequency and amplitude of action potentials are shown (right panels).

[4] = system: mutant VGSC in which the fast inactivation particle was disabled (Nav1.6); test: Long-term inactivation of mutant VGSC with disabled fast inactivation particle, whole cell voltage clamp; assay type: cell-based; conditions: single cycle of membrane depolarization
Procedure: . Nav1.6 currents were analyzed in cells without FHFs (left panels—FIG. 7) or after transient transfection with a DNA vector expressing full-length FHF2A protein (right panels—FIG. 7).

[5] = four 16 msec depolarization cycles at 0 mV separated by 40 msec recoveries at -90 mV, cells transfected with FHF expression vector

AAAIASSLIRQKRQAREREK [ANTD peptide, peptide corresponding to N-terminal residues 2-21 of FHF2A]
long-term inactivation of Nav1.6 ([1]; 0.5 mM peptide in pipette solution, four 16 msec depolarization cycles, 40 msec recoveries): induced long-term inactivation, albeit to lesser degree | long-term inactivation of Nav1.6 ([1]; 1 mM peptide in pipette solution, four 16 msec depolarization cycles, 40 msec recoveries): robust accumulation into long-term inactivation | dose dependence of peptide-induced long-term inactivation ([1]; 1 mM versus 0.5 mM): dose dependent | onset of long-term inactivation ([1]; 1 millimolar peptide, compared with native protein): faster onset of long-term inactivation than the native protein | effect on voltage dependence of steady state (fast) inactivation of Nav1.6 [2]: no significant effect | action potentials generated upon current injection ([3]; current clamp, 800 msec positive current injection): only a single action potential | inward sodium currents ([3]; voltage clamp, four 16 msec depolarizations to 0 mV, 40 msec recoveries at -90 mV): decrease with each cycle of depolarization | outward potassium currents ([3]; voltage clamp, four depolarization cycles): unaffected | channels driven into long-term inactivation [4]: nearly all

FHF2A: full-length FHF2A protein, fibroblast growth factor homologous factor, expressed from a transfected DNA vector (AAAIASSLIRQKRQAREREK)
percentage of channels that undergo long-term inactivation ([1]; 60 msec test command, 40 msec recovery at -90 mV, then 0 mV, not increased by further depolarization): 35-40% | long-term inactivation of Nav1.6 [1, 5]: induce long-term inactivation | long-term inactivation of Nav1.6 ([1]; four 16 msec depolarization cycles at 0 mV separated by 40 msec recoveries at -90 mV, cells transfected with FHF expression vector, listed as FHF2A protein): channels accumulate into a long-term inactivated state with each depolarization cycle; also recorded: induces both long-term inactivation | voltage at which long-term inactivation occurs relative to steady state inactivation ([1]; test command voltage protocols, FHF2A-transfected cell): far more depolarized voltage than steady state inactivation | fraction of channels that do not rapidly recover from inactivation ([1]; two 6 msec depolarizations at 0 mV, -90 mV interpulse recovery 0.5 to 20 msec, cells transfected with FHF vector): approximately one-third | effect on voltage dependence of steady state (fast) inactivation of Nav1.6 [2]: depolarizing shift | channels driven into long-term inactivation [4]: nearly all channels being driven into long-term inactivation

B1: FHF1B: B-type fibroblast growth factor homologous factor expressed from a DNA expression vector (protein)
chain: MESKEPQLKGIVTRLFSQQGYFLQMHPDGTIDGTKDENSDYTLFNLIPVGLRVVAIQGVKASLYVAMNGEGYLYSSDVFTPECKFKESVFENYYVIYSSTLYRQQESGRAWFLGLNKEGQIMKGNRVKKTKPSSHFVPKPIEVCMYREPSLHEIGEKQGRSRKSSGTPTMNGGKVVNQDST
long-term inactivation of Nav1.6 [1, 5]: do not

B2: FHF4B: B-type fibroblast growth factor homologous factor expressed from a DNA expression vector (protein)
chain: MVKPVPLFRRTDFKLLLCNHKDLFFLRVSKLLDCFSPKSMWFLWNIFSKGTHMLQCLCGKSLKKNKNPTDPQLKGIVTRLYCRQGYYLQMHPDGALDGTKDDSTNSTLFNLIPVGLRVVAIQGVKTGLYIAMNGEGYLYPSELFTPECKFKESVFENYYVIYSSMLYRQQESGRAWFLGLNKEGQAMKGNRVKKTKPAAHFLPKPLEVAMYREPSLHDVGETVPKPGVTPSKSTSASAIMNGGKPVNKSKTT
long-term inactivation of Nav1.6 [1, 5]: do not

B3: FHF2B: B-type fibroblast growth factor homologous factor expressed from a DNA expression vector (protein)
chain: MALLRKSYSEPQLKGIVTKLYSRQGYHLQLQADGTIDGTKDEDSTYTLFNLIPVGLRVVAIQGVQTKLYLAMNSEGYLYTSELFTPECKFKESVFENYYVTYSSMIYRQQQSGRGWYLGLNKEGEIMKGNHVKKNKPAAHFLPKPLKVAMYKEPSLHDLTEFSRSGSGTPTKSRSVSGVLNGGKSMSHNEST
long-term inactivation of Nav1.6 [1, 5]: do not
